# Data published in patent publication US20240299345A1, “GINKGOLIDE B AND ITS DERIVATIVES FOR INHIBITING AND/OR REVERSING AGING” (CHINA MEDICAL UNIVERSITY, priority 2023, published 2024).
# Legend:
# [1] = tested on: 20-month-old aged female C57BL/6 mice; test: Aging-related skeletal muscle wasting in aged mice; format: in vivo, mouse
# Experimental: RIPA buffer (#ab156034, Abcam) containing 1X protease/phosphatase inhibitor (#1861281, Thermo Fisher Scientific) was used to lyse samples. Protein content was measured by BCA Protein Assay Kit (#23225, Thermo Fisher Scientific). Samples were loaded and separated in polyacrylamide gels and then transferred to PVDF membranes (#IPVH00010, Merck Millipore, Massachusetts, USA). The membranes were incubated with 5% BSA at room temperature for one hour and then incubated with primary antibodies overnight at 4° C., and then incubated with HRP-conjugated secondary antibodies (#SA00001-1, #SA100002-1, Proteintech, Rosemont, IL, USA) for one hour at room temperature. Signals were detected by the chemiluminescent substrate (#34095, Thermo Fisher Scientific) and were acquired by the ChemiDoc MP imaging system (Bio-Rad, Hercules, CA, USA).
# (§1) Serum was collected by cardiac puncture upon sacrifice.
# (§2) RNAs were purified by using the TRIzol® (#15596018, Invitrogen) and chloroform method (#C7559, Sigma-Aldrich) and reversed transcribed using High-Capacity cDNA Reverse Transcription Kit (#4368814, Applied Biosystems, Foster City, CA, USA). The quantitative RT-PCR was conducted with universal probe system (Roche Life Science, Indianapolis, IN, USA) by using a QuantStudio™ 7 Flex Real-Time PCR System (Applied Biosystems) and was normalized by the expression of GAPDH.
# To investigate whether GB improves healthspan, we administered GB to 20-month-old aged mice, equivalent to 70-80-year-old humans, which is more relevant to potential clinical applications than intervention starting from young adulthood (Wang, S., Lai, X., Deng, Y. & Song, Y. Correlation between mouse age and human age in anti-tumor research: Significance and method establishment. Life Sci 242, 117242, doi: 10.1016/j.lfs.2019.117242 (2020)). After GB administration for two months, we assessed the healthspan domains in terms of sarcopenia, physical activity, metabolic health, frailty index, and inflammation (FIG. 2A) according to the criteria in clinical practice (Shamliyan, T., Talley, K. M., Ramakrishnan, R. & Kane, R. L. Association of frailty with survival: a systematic literature review. Ageing Res Rev 12, 719-736, doi: 10.1016/j.arr.2012.03.001 (2013)). As expected, circulating osteocalcin levels were decreased in aged mice, while GB administration increased osteocalcin levels (FIG. 2B, p<0.0001) toward the levels of those in young mice. […] In line with muscle loss, aging led to a decreased in total protein content (FIG. 2H, p<0.0001) in skeletal muscle with upregulation of muscle atrophy markers, Fbxo32 and Trim63, at transcript (FIG. 2K, p<0.0001 and=0.0005, respectively) and protein levels. (FIG. 2L, p=0.0182 and 0.0003, respectively). […] GB reversed the infiltration of adipose-like tissues by aging (FIGS. 2D and 2G, p=0.0012). […] GB administration reversed aging-related muscle wasting (FIG. 2K).
# [2] = tested on: gastrocnemius (GA) muscle; test: Ex vivo muscle contractility and fatigability of GA muscle from treated aged mice; format: in vivo, mouse; details: GB 2 months
# Experimental: For the ex vivo muscle function test, the isolated right side gastrocnemius (GA) muscle were incubated in Krebs buffer at room temperature and with 95% O2 and 5% CO2 for five minutes. GA muscle received stimuli three times under the optimal length to evaluate twitch force. Three 150 Hz continuous stimuli were given to evaluate tetanic force. Twitch force and tetanic force were normalized to the cross-section area (CSA) of GA muscle. GA muscle fatigue was measured by repeated isometric tetanic contraction every 5 seconds for a total of 60 contractions. Five minutes and ten minutes after fatigue protocol, the maximal tetanic force was measured to assess post-fatigue recovery. All of the results were recorded with the Dynamic Muscle Control system (DMC v5.4; Aurora Scientific, Inc.), and results were analyzed by the Dynamic Muscle Analysis system (DMA v3.2; Aurora Scientific, Inc.).
# [3] = tested on: 20-month-old aged female C57BL/6 mice; test: Metabolic health in aged mice (body weight, composition, intake, lipids, IPGTT, IPITT, gene expression); format: in vivo, mouse
# Experimental: For the food and water intake measurement, mice were divided into individual animal cages individually for 3 days for stabilizing the animals, and then daily consumption was recorded. The values were calculated by adjusting for body weight.
# Body composition was measured by Minispec LF50 TD-NMR (Bruker, MA, USA) based on nuclear magnetic resonance methods. Briefly, mice were anesthetized for the duration of the procedure by 3% isoflurane (Zoctis, London, UK) and placed in the scanning chamber in the prone position, with the limbs and tail stretched away from the body. The analysis would be conducted by default software per manufacturer's protocol. The vascular networks […] were quantified by in vivo micro-computed tomography (U-CT, Milabs, Netherlands). Briefly, mice intravenously received 150 μL ExiTron™ nano 12000 (#130-095-698, Miltonic Biotec GmbH, Bergisch Gladbach, Germany), and then mice were anesthetized with isoflurane before being positioned on the scanning chamber. After scanning, the blood vessels were analyzed by a curved multiplanar reconstruction algorithm by using Osirix software (Bernex, Switzerland).
# Mice fasted 16 hours and 2 hours before performing an IPGT test and IPIT test, respectively. IPGTT was performed by intraperitoneal injection of fasted mice with 1% body weight of sterile glucose/PBS (20% weight/volume). IPITT was performed by intraperitoneal injection of fasted mice with insulin (0.75 unit/kg body weight) (#12585014, Gibco). Blood glucose levels were measured at indicative timepoints after injection by a blood glucometer (countour plus, Ascensia Diabetes Care, Hong Kong).
# as §1, §2
# [4] = tested on: IL-6, IFN-γ; F4/80, CD86, CD206 cells; test: Tissue inflammatory cytokines (real-time PCR) and bone marrow macrophage IHC in aged mice; format: in vivo, mouse
# Experimental: as §2
# p16, p19, p57, γ-H2AX = test: Senescence markers in multiple tissues of aged mice (real-time PCR, IHC); format: in vivo, mouse
# Experimental: as §2
# healthy adult humans = details: short-term pharmacological studies; cited from earlier work
# [5] = aged mice, GB 2 months, p<0.0001
# [6] = among the three groups (young, vehicle-aged, GB-aged)
compound,measurement,setting,value
"CC1C(=O)OC2C(O)C34C5CC(C(C)(C)C)C36C(OC(=O)C6O)OC4(C(=O)O5)C12O (stereo not drawn) [GB, Ginkgolide B]",circulating osteocalcin levels,"[1]; aged (20-month-old) female mice, GB 12 mg/kg daily oral 2 months vs vehicle-aged, p<0.0001",increased
same,skeletal muscle-to-body ratio,"[1]; aged mice, GB 12 mg/kg daily oral 2 months vs vehicle-aged",significantly increased
same,infiltration of adipose-like tissues by aging,"[1]; aged mice, GB 12 mg/kg daily oral 2 months, p=0.0012",reversed
same,myofiber CSA,"[1]; aged mice, quadriceps, GB 12 mg/kg daily oral 2 months vs vehicle-aged, p=0.0032",significantly increased
same,total protein content in aged skeletal muscle,"[1]; gastrocnemius, aged mice, GB 12 mg/kg daily oral 2 months, p<0.0001",increased
same,expression level of Trim63 (mRNA and protein),"[1]; gastrocnemius, aged mice, GB 2 months, p=0.0039 and 0.0003",significant downregulation
same,expression level of Fbxo32 (mRNA and protein),"[1]; gastrocnemius, aged mice, GB 2 months, p=0.0078 and 0.0182",significant downregulation
same,absolute tetanic force,[2],significantly enhanced
same,absolute twitch force,[2],significantly enhanced
same,time to maximum force,[2]; p=0.0003,reversed the increased time to maximum force to the youth levels
same,specific force (normalized to muscle mass),[2]; p=0.1161 and 0.1935,modest increased
same,fatigue resistance or recovery rate,[2]; p=0.99 at five and ten minutes,did not alter
same,food and water consumptions,"[3]; aged mice, GB 2 months vs vehicle, p=0.5127 and 0.9368",not improved
same,lean mass,[3]; [5],increase
same,whole-body fat mass,[3]; [5],decrease
same,expression of Pkm in aged skeletal muscle,"[3]; aged mice, GB 2 months, p<0.0001, not in aged liver",restored
same,expression of Glut4 in aged skeletal muscle,"[3]; aged mice, GB 2 months, p=0.0035, not in aged liver",restored
same,aging-related alteration in serum total cholesterol level,"[3]; aged mice, GB 2 months, p=0.0284",reversed
same,aging-related glucose intolerance (IPGTT),"[3]; aged mice, GB 2 months, p=0.0322 in AUC",improved
same,aging-related alteration in serum triglyceride level,"[3]; aged mice, GB 2 months, p=0.0424",reversed
same,body weight reduction,"[3]; aged mice, post-GB administration 2 months, p=0.0123",6%
same,fasting blood glucose,[3]; [6],no significant difference
same,insulin sensitivity (IPITT),[3]; [6],no difference
same,inflammatory cytokines IL-6 and IFN-γ in multiple tissues,"[4]; GB 2 months, real-time PCR",downregulated
same,CD86+ pro-inflammatory M1 macrophages,[4]; femur bone marrow IHC,decrease
same,CD206+ anti-inflammatory M2 macrophages,[4]; femur bone marrow IHC,increased
same,aging-related accumulation of bone marrow F4/80+ cells,[4]; femur bone marrow IHC,reversed
same,expression of histone γ-H2AX,"p16, p19, p57, γ-H2AX; IHC, multiple tissues of aged mice",reduced
same,"expression of p16, p19 and p57","p16, p19, p57, γ-H2AX; liver, kidney, lung, spleen, heart and muscle of aged mice, except p16 in spleen and p57 in lung",significantly inhibited
same,tolerability of multiple administration,healthy adult humans,well tolerated
